# Reference: article PMC9696579 (Nature structural & molecular biology, 2022)
# Where a SMILES comes first, the peptide text is derived from it. The star is where a group is joined. 5FAM = O=C1OC2(c3ccc(O)cc3Oc3cc(O)ccc32)c2ccc(C(=O)*)cc21; PEG3 = NCCOCCOCCOCCC(=O)O
# What was measured:
# human PKA-Cα = human PKA-Cα (Homo sapiens, UniProt P17612); assay: Fluorescence polarization, FAM-labeled SMO peptide binding to human PKA-Cα; conditions: human or mouse PKA-Cα
# SMO [1] = assay: Immunofluorescence of SMO and endogenous PKA-C in NIH3T3 cilia
# SMO [2] = conditions: inverse agonist; cited from earlier work
# PKA-Cα [3] = assay: BRET analysis of SMO / PKA-C interactions in IMCD3 cells; assay type: cell-based, mouse; conditions: PKA-C expressed at near-endogenous levels, n = three
# PKA-Cα [4] = assay: SMO / PKA-C colocalization in cilia of IMCD3 cells; assay type: cell-based; conditions: WRR mutation, SAG21k 1 μM overnight
# GLI = GLI transcriptional reporter assay in Smo−/− MEFs; assay type: cell-based, mouse; conditions: ShhN conditioned medium, 2 days, n = three
# mouse PKA-Cα = mouse PKA-Cα (Mus musculus, UniProt P05132); assay: Surface plasmon resonance; conditions: SPR
# [5] = biological target: mouse PKA catalytic subunit (Cα) (Mus musculus, UniProt P05132); assay: In vitro PKA-C activity assay; assay type: biochemical; conditions: read-out: IC50 for PKA-C activity; recombinant SMO pCT; apparent IC50; 15–30 nM Cα, 260 μM Kemptide, 100 μM ATP, 10 mM MgCl2, 100 mM MOPS pH 7; 3 min preincubation, room temperature; two independent experiments
# PKA-Cα [6] = assay: BRET analysis of SMO / PKA-C interactions in HEK293 cells; assay type: cell-based, mouse; conditions: nanoluc-tagged SMO657 with YFP-tagged PKA-Cα, mean, n = three
# smo−/− zebrafish = assay: Slow muscle specification in smo−/− zebrafish embryos; assay type: in vivo, Danio rerio; conditions: mRNA injection; Prox1 / Engrailed staining; <26 hours post-fertilization
compound,measurement,setting,value
CC[C@H](C)[C@H](NC(=O)[C@H](C)NC(=O)CNC(=O)[C@H](CCCNC(=N)N)NC(=O)[C@H](CCCNC(=N)N)NC(=O)[C@H](C)NC(=O)[C@@H](NC(=O)[C@H](CCSC)NC(=O)[C@H](CCCCN)NC(=O)[C@@H](NC(=O)[C@@H](NC(=O)[C@H](Cc1c[nH]cn1)NC(=O)[C@H](CCC(N)=O)NC(=O)[C@H](C)NC(=O)[C@H](Cc1c[nH]c2ccccc12)NC(=O)[C@H](C)NC(=O)[C@H](CO)NC(=O)[C@H](CO)NC(=O)[C@@H](NC(=O)[C@H](CC(=O)O)NC(=O)[C@H](C)NC(=O)[C@H](CO)NC(=O)CCOCCOCCOCCNC(=O)c1ccc2c(c1)C(=O)OC21c2ccc(O)cc2Oc2cc(O)ccc21)C(C)C)C(C)C)[C@@H](C)O)C(C)C)C(=O)N[C@@H](CC(C)C)C(=O)N1CCC[C@H]1C(=O)O ({5FAM-PEG3}-SADVSSAWAQHVTKMVARRGAILP-OH),ATP dependence of interaction with PKA-Cα,human PKA-Cα,strongly ATP-dependent
CNC1CCC(N(Cc2cccc(-c3ccncc3)c2)C(=O)c2sc3ccccc3c2Cl)CC1 (stereo not shown) [SAG],accumulation of SMO in cilia,"SMO [1]; NIH3T3 stably expressing SMO-V5-TurboID, SAG 100 nM, anti-V5",dramatic accumulation of SMO in cilia
CC1=C2C[C@H]3[C@@H](CC=C4C[C@@H](O)CC[C@@]43C)[C@@H]2CC[C@]12O[C@@H]1C[C@H](C)CN[C@H]1[C@H]2C [cyclopamine],"effect on SMO (accumulation in cilia, conformation)",SMO [2],induces SMO to accumulate in cilia but traps it in an inactive conformation
same,SMO colocalization with endogenous PKA-C in primary cilium,"SMO [1]; NIH3T3, cyclopamine 5 μM, 8 hours",did not occur
SMO WRR: full-length SMO with WRR mutation (SADVSSAAAQHVTKMVAAAGAILPQDVSVTPVATPVPP),interaction with PKA-C (BRET),PKA-Cα [3],prevented interaction between SMO and PKA-C
same,colocalization with PKA-C in cilia,PKA-Cα [4],dramatically reduced colocalization in cilia
same,GLI transcriptional response,GLI,almost completely devoid of activity
"SMO pCT: recombinant protein encompassing the entire 93 amino-acid SMO pCT, GST-tagged for SPR",ATP/MgCl2 dependence of PKA-C binding,"mouse PKA-Cα; ATP and MgCl2 omitted, PKA-Cα […]",depended strictly on ATP and MgCl2
same,binding to PKA-Cα,"mouse PKA-Cα; mouse PKA-Cα, ATP and MgCl2 present",bound specifically to mouse PKA-Cα
"recombinant SMO pCT: residues 565–657 of mouse SMO, cleaved from MBP-His8-SUMO tags",IC50,[5],10.9 µM
wild-type SMO657: nanoluc-tagged truncated SMO construct,BRET with PKA-C,PKA-Cα [6],"strong, specific BRET"
wild-type SMO: full-length wild-type SMO construct,GLI transcriptional response,GLI,strong GLI transcriptional responses to Hh ligands
same,muscle specification in smo−/− zebrafish,smo−/− zebrafish,restored correct muscle specification
